Assay results reported in ChEMBL document CHEMBL5104124, “Recent advances on synthesis and biological activities of C-17 aza-heterocycle derived steroids” (Bioorg Med Chem, 2022).

Legend:
CCRF-CEM [1] = assay: Antiproliferative activity against human CEM cells assessed as cell growth inhibition measured after 4 days by coulter counter assay; type: functional, cell-based; details: 96 h
HeLa [2] = assay: Antiproliferative activity against human HeLa cells assessed as cell growth inhibition measured after 4 days by coulter counter assay; type: functional, cell-based; details: 96 h
[3] = Antiproliferative activity against human HMEC-1 cells assessed as cell growth inhibition measured after 4 days by coulter counter assay; type: toxicity, cell-based
[4] = biological target: 3-oxo-5-alpha-steroid 4-dehydrogenase 2 (Homo sapiens, UniProt P31213); assay: Inhibition of SRD5A2 in HEK293 incubated for 60 mins by thin layer chromatography; type: cell-based
[5] = biological target: 3-oxo-5-alpha-steroid 4-dehydrogenase 1 (Homo sapiens, UniProt P18405); assay: Inhibition of human prostate SRD5A1 incubated for 60 mins by scintillation counter; type: tissue-based, Prostate gland
HepG2 [6] = assay: Antiproliferative activity against human HepG2 cells assessed as cell growth inhibition by MTT assay; type: functional, cell-based
Huh-7 = assay: Antiproliferative activity against human Huh-7 cells assessed as cell growth inhibition by MTT assay; type: functional, cell-based
SGC-7901 = assay: Antiproliferative activity against human SGC-7901 cells assessed as cell growth inhibition by MTT assay; type: functional, cell-based
HepG2 [7] = assay: Antiproliferative activity against human HepG2 cells assessed as cell growth inhibition measured after 24 hrs by MTT assay; type: functional, cell-based; details: HepG2, 24 h
Staphylococcus aureus [8] = assay: Antibacterial activity against Staphylococcus aureus ATCC 25923 assessed as inhibition of bacterial growth measured after 24 hrs by CLSI protocol based microdilution assay; type: functional
Bacillus cereus = assay: Antibacterial activity against Bacillus cereus ATCC 11778 assessed as inhibition of bacterial growth measured after 24 hrs by CLSI protocol based microdilution assay; type: functional
Enterococcus faecalis = assay: Antibacterial activity against Enterococcus faecalis ATCC 19433 assessed as inhibition of bacterial growth measured after 24 hrs by CLSI protocol based microdilution assay; type: functional
Escherichia coli = assay: Antibacterial activity against Escherichia coli DSM 10233 assessed as inhibition of bacterial growth measured after 24 hrs by CLSI protocol based microdilution assay; type: functional
Corynebacterium sp. = assay: Antibacterial activity against Corynebacterium assessed as inhibition of bacterial growth measured after 24 hrs by CLSI protocol based microdilution assay; type: functional
Brevibacterium = assay: Antibacterial activity against Brevibacterium assessed as inhibition of bacterial growth measured after 24 hrs by CLSI protocol based microdilution assay; type: functional
Candida albicans = assay: Antifungal activity against Candida albicans ATCC 10231 assessed as fungal growth inhibition measured after 24 hrs by CLSI protocol based microdilution assay; type: functional
Staphylococcus aureus [9] = assay: Antibacterial activity against methicillin resistant Staphylococcus aureus ATCC 25923 assessed as inhibition of bacterial growth measured after 24 hrs by CLSI protocol based microdilution assay; type: functional
Staphylococcus aureus [10] = assay: Antibacterial activity against methicillin resistant Staphylococcus aureus ATCC 43300 assessed as inhibition of bacterial growth measured after 24 hrs by CLSI protocol based microdilution assay; type: functional
Staphylococcus aureus [11] = assay: Antibacterial activity against methicillin resistant Staphylococcus aureus human isolate assessed as inhibition of bacterial growth measured after 24 hrs by CLSI protocol based microdilution assay; type: functional
Staphylococcus aureus [12] = assay: Antibacterial activity against methicillin resistant Staphylococcus aureus chicken isolate assessed as inhibition of bacterial growth measured after 24 hrs by CLSI protocol based microdilution assay; type: functional
Tubulin = Tubulin (Sus scrofa, UniProt P02554+P02550); assay: Inhibition of porcine brain tubulin polymerization preincubated for 30 mins followed by GTP addition by absorbance based analysis; type: tissue-based
CCRF-CEM [13] = assay: Antiproliferative activity against human CEM cells assessed as cell growth inhibition; type: functional, cell-based
HeLa [14] = assay: Antiproliferative activity against human HeLa cells assessed as cell growth inhibition; type: functional, cell-based
[15] = Antiproliferative activity against human HMEC-1 cells assessed as cell growth inhibition; type: toxicity, cell-based
[16] = Antiproliferative activity against African green monkey Vero cells assessed as cell growth inhibition; type: toxicity, cell-based; details: African green monkey (Chlorocebus sabaeus)
HT-29 = assay: Antiproliferative activity against human HT-29 cells assessed as cell growth inhibition; type: functional, cell-based
[17] = Antiangiogenesis activity in Bovine BAEC cells assessed as increase in tube formation incubated for 18 hrs by microscopic analysis; type: functional, cell-based; details: Bos taurus
SK-OV-3 = assay: Antiproliferative activity against human SK-OV-3 cells assessed as cell growth inhibition; type: functional, cell-based
MCF7 [18] = assay: Antiproliferative activity against human MCF7 cells assessed as cell growth inhibition; type: functional, cell-based
HepG2 [19] = assay: Antiproliferative activity against human HepG2 cells assessed as cell growth inhibition; type: functional, cell-based
K562 = assay: Antiproliferative activity against human K562 cells assessed as cell growth inhibition measured after 5 days by MTT assay; type: functional, cell-based; details: K562, 120 h
OVCAR-3 = assay: Antiproliferative activity against human OVCAR-3 cells assessed as cell growth inhibition measured after 5 days by MTT assay; type: functional, cell-based; details: OVCAR-3, 120 h
[20] = Antiproliferative activity against human WM35 cells assessed as cell growth inhibition measured after 5 days by MTT assay; type: functional, cell-based; details: WM35, 120 h
[21] = biological target: 3-oxo-5-alpha-steroid 4-dehydrogenase 1 (Rattus norvegicus, UniProt P24008); assay: Inhibition of rat liver microsomal SRD5A1 incubated for 60 mins by thin layer chromatography; type: microsomes, Microsome
[22] = biological target: 3-oxo-5-alpha-steroid 4-dehydrogenase 2 (Rattus norvegicus, UniProt P31214); assay: Inhibition of rat liver microsomal SRD5A2 incubated for 60 mins by thin layer chromatography; type: microsomes, Microsome
ECa-109 cell line = assay: Antiproliferative activity against human EC109 cells assessed as cell growth inhibition measured after 72 hrs by MTT assay; type: functional, cell-based; details: ECa-109, 72 h
EC9706 = assay: Antiproliferative activity against human EC9706 cells assessed as cell growth inhibition measured after 72 hrs by MTT assay; type: functional, cell-based; details: EC9706, 72 h
MGC-803 = assay: Antiproliferative activity against human MGC-803 cells assessed as cell growth inhibition measured after 72 hrs by MTT assay; type: functional, cell-based; details: MGC-803, 72 h
MCF7 [23] = assay: Antiproliferative activity against human MCF7 cells assessed as cell growth inhibition measured after 72 hrs by MTT assay; type: functional, cell-based; details: MCF7, 72 h
T47D = assay: Antiproliferative activity against human T47D cells assessed as cell growth inhibition measured after 72 hrs by MTT assay; type: functional, cell-based
MDA-MB-361 = assay: Antiproliferative activity against human MDA-MB-361 cells assessed as cell growth inhibition measured after 72 hrs by MTT assay; type: functional, cell-based; details: MDA-MB-361, 72 h
MDA-MB-231 = assay: Antiproliferative activity against human MDA-MB-231 cells assessed as cell growth inhibition; type: functional, cell-based
[24] = Inhibition of Wistar rat testicular 3beta-HSD incubated for 20 mins by liquid scintillation counting analysis; type: tissue-based, Testis
LNCaP = assay: Antiproliferative activity against human LNCaP cells assessed as cell growth inhibition measured after 96 hrs by MTT assay; type: functional, cell-based
PC-3 = assay: Antiproliferative activity against human PC-3 cells assessed as cell growth inhibition measured after 96 hrs by MTT assay; type: functional, cell-based; details: PC-3, 96 h

Sequence of 3-oxo-5-alpha-steroid 4-dehydrogenase 2 (Homo sapiens, UniProt P31213) (P31213 whole entry): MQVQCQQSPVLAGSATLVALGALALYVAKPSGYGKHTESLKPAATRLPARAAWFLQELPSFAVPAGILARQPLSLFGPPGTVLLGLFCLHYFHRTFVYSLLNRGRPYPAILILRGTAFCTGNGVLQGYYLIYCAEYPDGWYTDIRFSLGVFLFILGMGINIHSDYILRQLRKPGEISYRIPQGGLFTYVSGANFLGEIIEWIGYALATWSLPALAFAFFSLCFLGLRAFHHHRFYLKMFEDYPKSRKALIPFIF
Sequence of 3-oxo-5-alpha-steroid 4-dehydrogenase 1 (Homo sapiens, UniProt P18405) (P18405 whole entry): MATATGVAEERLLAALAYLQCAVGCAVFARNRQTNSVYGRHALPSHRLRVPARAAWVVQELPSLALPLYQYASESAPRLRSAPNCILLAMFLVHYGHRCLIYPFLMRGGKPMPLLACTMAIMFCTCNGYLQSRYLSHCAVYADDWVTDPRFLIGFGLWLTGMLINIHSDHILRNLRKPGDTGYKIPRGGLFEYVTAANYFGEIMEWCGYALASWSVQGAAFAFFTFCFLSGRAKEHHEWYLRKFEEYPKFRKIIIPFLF
Sequence of 3-oxo-5-alpha-steroid 4-dehydrogenase 2 (Rattus norvegicus, UniProt P31214) (P31214 whole entry): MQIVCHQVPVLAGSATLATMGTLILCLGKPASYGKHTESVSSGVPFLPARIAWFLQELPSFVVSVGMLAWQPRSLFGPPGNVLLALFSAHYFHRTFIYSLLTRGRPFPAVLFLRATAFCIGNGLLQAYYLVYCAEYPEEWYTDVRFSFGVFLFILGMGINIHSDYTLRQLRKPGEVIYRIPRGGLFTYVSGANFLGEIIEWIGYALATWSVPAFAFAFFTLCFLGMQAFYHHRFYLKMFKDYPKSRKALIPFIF
Sequence of 3-oxo-5-alpha-steroid 4-dehydrogenase 1 (Rattus norvegicus, UniProt P24008) (P24008 whole entry): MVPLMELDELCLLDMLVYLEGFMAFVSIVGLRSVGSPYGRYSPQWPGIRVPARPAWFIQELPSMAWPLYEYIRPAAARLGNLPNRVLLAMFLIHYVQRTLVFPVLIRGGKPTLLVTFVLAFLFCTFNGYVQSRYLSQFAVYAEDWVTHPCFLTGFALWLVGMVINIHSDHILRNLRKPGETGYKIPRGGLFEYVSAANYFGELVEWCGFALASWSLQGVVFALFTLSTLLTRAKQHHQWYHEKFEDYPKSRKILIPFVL

## C[C@]12CC[C@H](O)CC1=CC[C@@H]1[C@@H]2CC[C@]2(C)C(c3ccc4[nH]ccc4c3)=CC[C@@H]12
CCRF-CEM [1]
  IC50: 1500 nM
HeLa [2]
  IC50: 2900 nM
[3]
  IC50 at 4 days: 590 nM

## C[C@]12CC[C@H](O)CC1=CC[C@@H]1[C@@H]2CC[C@]2(C)C(c3ccn(-c4ccc(Cl)cc4)n3)=CC[C@@H]12
[4]
  IC50: 35.3 nM
[5]
  IC50: 14.2 nM

## C[C@]12CC[C@H](O)CC1=CC[C@@H]1[C@@H]2CC[C@]2(C)c3nc(N)nc(-c4ccccc4Cl)c3C[C@@H]12
HepG2 [6]
  IC50: 5410 nM
Huh-7
  IC50: 5650 nM
SGC-7901
  IC50: 10600 nM

## COc1ccncc1C1=CC[C@H]2[C@@H]3CC=C4C[C@@H](OC(=O)[C@H](O)[C@@H](NC(=O)c5ccccc5)c5ccccc5)CC[C@]4(C)[C@H]3CC[C@]12C
HepG2 [7]
  IC50: 67700 nM

## CCCCCCCn1c[n+](CCCCCCC)c2c1[C@@]1(C)CC[C@H]3[C@@H](CC=C4C[C@@H](O)CC[C@@]43C)[C@@H]1C2.[I-]
Staphylococcus aureus [8]
  MIC: 0.25 µg/mL
Bacillus cereus
  MIC: 0.5 µg/mL
Enterococcus faecalis
  MIC: 1 µg/mL
Escherichia coli
  MIC: 4 µg/mL
Corynebacterium sp.
  MIC: 1 µg/mL
Brevibacterium
  MIC: 0.25 µg/mL
Candida albicans
  MIC: 1 µg/mL
Staphylococcus aureus [9]
  MIC: 1 µg/mL
Staphylococcus aureus [10]
  MIC: 1 µg/mL
Staphylococcus aureus [11]
  MIC: 1 µg/mL
Staphylococcus aureus [12]
  MIC: 0.5 µg/mL

## COc1cc2c(cc1OS(N)(=O)=O)CC[C@@H]1[C@@H]2CC[C@]2(C)C(c3ccnc(Cl)c3)=CC[C@@H]12
Tubulin
  IC50: 2300 nM
CCRF-CEM [13]
  IC50: 260 nM
HeLa [14]
  IC50: 1600 nM
[15]
  IC50: 2300 nM
[16]
  IC50: 1300 nM
HT-29
  IC50: 430 nM
[17]
  IC50: 100 nM

## CC(=O)N1N=C(C2=CC[C@H]3[C@@H]4CC=C5C[C@@H](O)CC[C@]5(C)[C@H]4CC[C@]23C)C[C@H]1c1ccc(F)cc1
[4]
  IC50: 27.3 nM
[5]
  IC50: 13.9 nM

## C[C@]12CC[C@H]3[C@@H](CC=C4C[C@@H](O)CC[C@@]43C)[C@@H]1CC[C@@H]2c1cc(-c2ccc(O)cc2)c(C#N)c(N)n1
HeLa [14]
  IC50: 8140 nM
SK-OV-3
  IC50: 5080 nM
MCF7 [18]
  IC50: 8810 nM
HepG2 [19]
  IC50: 12400 nM

## COc1cc2c(cc1O)CC[C@@H]1[C@@H]2CC[C@]2(C)[C@@H](c3cn(-c4ccc(OC(F)(F)F)cc4)nn3)CC[C@@H]12
K562
  IC50: 700 nM
OVCAR-3
  IC50: 900 nM
[20]
  IC50: 2900 nM
Tubulin
  IC50: 5900 nM

## C[C@]12CC[C@H](OC(=O)C3CC3)CC1=CC[C@@H]1[C@@H]2CC[C@]2(C)C(n3cnc4ccccc43)=C(C=O)C[C@@H]12
[21]
  IC50: 320 nM
[22]
  IC50: 4 nM

## C[C@]12CC[C@H](O)CC1=CC[C@@H]1[C@@H]2CC[C@]2(C)c3nc(NCc4ccc(Cl)cc4)sc3C[C@@H]12
ECa-109 cell line
  IC50: 196 nM
EC9706
  IC50: 39300 nM
MGC-803
  IC50: 10300 nM

## CCCCCCn1c[n+](CCCCCC)c2c1[C@@]1(C)CC[C@H]3[C@@H](CC=C4C[C@@H](O)CC[C@@]43C)[C@@H]1C2.[I-]
Staphylococcus aureus [8]
  MIC: 0.5 µg/mL
Bacillus cereus
  MIC: 1 µg/mL
Enterococcus faecalis
  MIC: 4 µg/mL
Escherichia coli
  MIC: 4 µg/mL
Corynebacterium sp.
  MIC: 8 µg/mL
Brevibacterium
  MIC: 0.5 µg/mL
Candida albicans
  MIC: 1 µg/mL
Staphylococcus aureus [9]
  MIC: 0.5 µg/mL
Staphylococcus aureus [10]
  MIC: 1 µg/mL
Staphylococcus aureus [11]
  MIC: 1 µg/mL
Staphylococcus aureus [12]
  MIC: 1 µg/mL

## C[C@]12CC[C@H](O)CC1=CC[C@@H]1[C@@H]2CC[C@]2(C)C3=NN(c4ccc(C#N)cc4)C[C@@H]3C[C@@H]12
MCF7 [23]
  IC50: 1100 nM
T47D
  IC50: 1450 nM
MDA-MB-361
  IC50: 940 nM

## COc1cc2c(cc1OS(N)(=O)=O)CC[C@@H]1[C@@H]2CC[C@]2(C)C(c3cncc(Cl)c3)=CC[C@@H]12
Tubulin
  IC50: 2100 nM
CCRF-CEM [13]
  IC50: 39 nM
HeLa [14]
  IC50: 370 nM
[15]
  IC50: 400 nM
[16]
  IC50: 30 nM
HT-29
  IC50: 110 nM
MDA-MB-231
  IC50: 110 nM
[17]
  IC50: 200 nM

## COC(=O)c1cc([C@H]2CC[C@H]3[C@@H]4CCC5=CC(=O)CC[C@]5(C)[C@H]4CC[C@]23C)n(-c2ccc(OC)cc2)n1
[24]
  IC50: 420 nM

## C[C@]12CC[C@H](O)CC1=CC[C@@H]1[C@@H]2CC[C@]2(C)C(n3cnc4ccccc43)=C(C=O)C[C@@H]12
[22]
  IC50: 127 nM

## COc1cc2c(cc1O)CC[C@@H]1[C@@H]2CC[C@]2(C)[C@@H](c3cn(-c4ccc(C(F)(F)F)cc4)nn3)CC[C@@H]12
K562
  IC50: 1000 nM
OVCAR-3
  IC50: 1400 nM
[20]
  IC50: 1900 nM
Tubulin
  IC50: 8100 nM

## C[C@]12CC[C@H](O)CC1=CC[C@@H]1[C@@H]2CC[C@]2(C)C(c3nc4ccccc4[nH]3)=CC[C@@H]12
LNCaP
  IC50: 3800 nM
PC-3
  IC50: 6900 nM
